Test results reported in patent US8017316B2, “Methods and compositions for the identification of insect repellent compounds” (Duke University, priority 2007, dated 2011).

Columns and labels:
wild-type Canton S flies = experiment: Avoidance Evaluation Chamber assay, wild type flies; type: in vivo, Drosophila melanogaster; conditions: for avoidance without the third antennal segment: wild type Canton S flies, third antennal segment removed
Procedure: (§1) Avoidance Evaluation Chambers: 3% agar (Fisher Scientific, Pittsburgh, Pa., United States of America) and 3% sucrose (Fisher Scientific) was dissolved in distilled H2O. 0.2% (1:500, or 20 mM) N,N-diethyl-3-methylbenzamide (DEET) or 0.01% (1:10000, or 1 mM) allyl-isothiocyanate (AITC) was added and mixed into the agar/sucrose solution immediately before 22 milliliters of solution was poured into each 60 diameter×15 mm HBD Falcon Standard Tissue Culture Dish. The agar was allowed for harden for approximately 1 hour. Using a template below each dish, the agar was then split along the midline with a clean razor blade and half of each plate was excised and placed onto a clean absorbent towel. In order to assess preference, the empty half of each plate was then replaced with solidified 3% agar and 3% sucrose without the addition of DEET or AITC. Care was taken to not contaminate surfaces of toxin and toxin-free agar during this switch.
(§2) Olfactory Desensitization: To prevent most odorant detection, the third antennal segment of each antennae was removed from flies under CO2 anesthesia 24 hours before avoidance trials. Removal of both aristae, but not any part of the antennae, was used as a sham to control for non-specific effects that may have resulted from the surgical procedure.
(§3) Trial Recording: Testing areas (e.g., plates), each containing toxin-containing and toxin-free halves, were placed on a fluorescent-bulb containing light box and arranged so that all fit within the viewfinder of a digital video camera (SONY Handycam; see FIG. 1). Multiple flies to be used on each plate of the trial were sorted under CO2 anesthesia 24 hours before the experiment into glass vials containing fly food. During the experiment, the flies were transferred onto the agar plates by gentle tapping after vials were cooled horizontally on ice. The lids were replaced on the agar plates after fly transfer and animals were allowed a 5-minute acclimation time prior to the start of each trial. The video camera began recording after this acclimation time and ran for 60 minutes. External noise and odors were avoided throughout the trial.
Data Analysis—Avoidance Behavior: Video was downloaded from the digital video camera to a computer using Image Video Mixer (Sony Electronics Inc.) and saved as an MPEG2 file. The movie was then converted to and saved as an image stack at the rate of 1-3 images/second through Image Video Machine (DanDans Digital Media, Boston, Mass., United States of America). Image stacks for each trial were then analyzed at 10 or 15-minute intervals. Each interval was imported and converted to grayscale into ImageJ (Rasband, ImageJ, U.S. National Institutes of Health, Bethesda, Md., United States of America) as a stack and thresholded (Image→Threshold) so that only flies were visible. Care was taken to make sure only flies were visible in each slice since fluorescence in the light box may be of different brightness in each image. The Z-stack Standard Deviation function of ImageJ (Image→Stack→Z-stack→Standard Deviation) was used to visualize the position of all flies throughout each time interval. […] To quantify this amount of time each space was occupied, the “mean gray value” for each side was calculated using the Analyze Measurements menu of ImageJ. […]
Alternatively, the threshold intensity of a single frame in NIH ImageJ was determined automatically; this function highlighted only the flies against an otherwise white background. […]

painless mutant flies = experiment: Avoidance Evaluation Chamber assay, painless mutant flies; type: in vivo, Drosophila melanogaster
Procedure: (§4) Drosophila Stocks. All fly stocks were maintained on conventional cornmeal-agar-molasses medium under a 12 hour light/12 hour dark cycle at 22° C. Fly strains used were the wild-type Canton-S, the painless mutant pain1 (EP(2)2451), the dTRPA1 mutant (dTRPA1^23-5939/Df(3L)ED4415), the painless− dTRPA1 double mutant pain1; dTRPA1^23-5939, the Or83b mutant W;ΔOr83b (provided by Dr. Hubert Amrein, Duke University, Durham, N.C., United States of America), and the Or83b-painless double mutant pain1; W;ΔOr83b.
as §1, §2, §3
Data Analysis—Avoidance Behavior: Video was downloaded from the digital video camera to a computer using Image Video Mixer (Sony Electronics Inc.) and saved as an MPEG2 file. The movie was then converted to and saved as an image stack at the rate of 1-3 images/second through Image Video Machine (DanDans Digital Media, Boston, Mass., United States of America). Image stacks for each trial were then analyzed at 10 or 15-minute intervals. Each interval was imported and converted to grayscale into ImageJ (Rasband, ImageJ, U.S. National Institutes of Health, Bethesda, Md., United States of America) as a stack and thresholded (Image→Threshold) so that only flies were visible. Care was taken to make sure only flies were visible in each slice since fluorescence in the light box may be of different brightness in each image. The Z-stack Standard Deviation function of ImageJ (Image→Stack→Z-stack→Standard Deviation) was used to visualize the position of all flies throughout each time interval. This inverts and stacks pixels (flies) from each stack image so that the most occupied areas are standardized to be the brightest, and the least occupied areas remain dark. To quantify this amount of time each space was occupied, the “mean gray value” for each side was calculated using the Analyze Measurements menu of ImageJ. […]

Or83b mutants = experiment: Avoidance Evaluation Chamber assay, Or83b mutant flies; type: in vivo, Drosophila melanogaster; conditions: olfaction-deficient Or83b mutants
Procedure: as §4
(§5) Avoidance Evaluation Chambers: 3% agar (Fisher Scientific, Pittsburgh, Pa., United States of America) and 3% sucrose (Fisher Scientific) was dissolved in distilled H2O. […]
(§6) Data Analysis—Avoidance Behavior: Video was downloaded from the digital video camera to a computer using Image Video Mixer (Sony Electronics Inc.) and saved as an MPEG2 file. […] Image stacks for each trial were then analyzed at 10 or 15-minute intervals. […] Care was taken to make sure only flies were visible in each slice since fluorescence in the light box may be of different brightness in each image. […] To quantify this amount of time each space was occupied, the “mean gray value” for each side was calculated using the Analyze Measurements menu of ImageJ. […]

dTRPA1 mutant flies = experiment: Avoidance Evaluation Chamber assay, dTRPA1 mutant flies; type: in vivo, Drosophila melanogaster
Procedure: as §4, §5, §6

Drosophila flies = experiment: Evaluation of activity level (speed of flies); type: in vivo, Drosophila melanogaster
Procedure: Evaluation of Activity Level—Speed of Flies: Video of trials were downloaded and converted to image stacks and thresholded as described above. The ImageJ plug-in “Multitracker” was used to analyze the paths taken by each fly. The total distance traveled by all flies on each plate was calculated using the Multitracker plug-in, and this distance was divided by the time interval (in minutes) to gauge the average speed of flies on each plate in path lengths/minute.

Drosophila painless = target: T1, Drosophila painless (Drosophila melanogaster, UniProt Q9W0Y6); experiment: Calcium imaging of S2R+ cells transfected with painless; type: cell-based; conditions: 0.5% DEET, six regions of interest
T1 construct: expressed in transfected cells; host or cells: Drosophila S2R+ cells
T1 sequence (Q9W0Y6 1-913): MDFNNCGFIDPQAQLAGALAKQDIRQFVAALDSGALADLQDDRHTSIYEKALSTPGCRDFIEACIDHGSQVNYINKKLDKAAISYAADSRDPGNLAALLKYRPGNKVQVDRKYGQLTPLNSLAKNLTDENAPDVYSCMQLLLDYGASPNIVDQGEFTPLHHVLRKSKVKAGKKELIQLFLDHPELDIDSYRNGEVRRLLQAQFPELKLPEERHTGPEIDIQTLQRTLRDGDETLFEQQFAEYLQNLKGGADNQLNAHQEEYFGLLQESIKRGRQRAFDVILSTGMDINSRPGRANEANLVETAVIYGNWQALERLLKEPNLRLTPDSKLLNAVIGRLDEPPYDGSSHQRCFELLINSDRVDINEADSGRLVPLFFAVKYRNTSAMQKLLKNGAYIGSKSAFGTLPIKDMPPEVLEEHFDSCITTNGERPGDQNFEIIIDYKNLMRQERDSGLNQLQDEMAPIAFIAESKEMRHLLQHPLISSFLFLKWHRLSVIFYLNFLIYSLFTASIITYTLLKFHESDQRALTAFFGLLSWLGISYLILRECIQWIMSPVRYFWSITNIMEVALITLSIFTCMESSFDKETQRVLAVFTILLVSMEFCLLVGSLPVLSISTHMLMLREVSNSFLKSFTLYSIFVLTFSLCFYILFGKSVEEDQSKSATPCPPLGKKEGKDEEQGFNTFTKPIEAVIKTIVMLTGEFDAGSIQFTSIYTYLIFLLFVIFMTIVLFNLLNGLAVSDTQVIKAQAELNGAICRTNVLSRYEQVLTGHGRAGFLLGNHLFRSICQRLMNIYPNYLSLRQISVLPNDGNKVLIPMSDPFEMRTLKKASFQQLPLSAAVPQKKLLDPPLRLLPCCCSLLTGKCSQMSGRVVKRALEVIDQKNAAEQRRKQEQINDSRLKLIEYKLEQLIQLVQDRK
Procedure: Calcium Phosphate Transfection of Drosophila S2R+ Cells: Drosophila S2R+ cells were maintained at room temperature, in ambient atmosphere, in Schneider's Drosophila medium modified with L-glutamine plus 10% heat-inactivated fetal bovine serum. On the day before DNA transfection, cells were plated at a density of 1.2×10^5 cells per cm^2 growth area. DNA to be transfected was added to 250 mM CaCl2 (a volume equal to 1/20th of the volume of the medium in the dish of cells to be transfected) then this mixture was added dropwise to the same volume of 280 mM NaCl/1.5 mM/Na2HPO4/50 mM HEPES, pH 7.08 (2×HEPES buffered saline) while bubbling air gently through the liquid to mix. Precipitate was allowed to form at room temperature for 40 minutes. Immediately before introducing the precipitate, all growth medium was removed form the cells and fresh growth medium was added. Precipitate was added dropwise to the cells, and the dish was gently swirled. 18-24 hour later all liquid on the dish was withdrawn and was replaced with fresh growth medium. Expression was examined on the third day.
For the DEET experiments, 2 ml of culture medium containing 5.75×10^5 cells/ml was placed onto #1.5 25 mm diameter round glass cover slips placed in 6-well multiwell dishes. […]

[1] = test system: non-transfected S2R+ cells; experiment: Calcium imaging of non-transfected S2R+ cells; type: cell-based, Drosophila; conditions: 0.5% DEET, seven regions of interest
Procedure: Calcium Imaging for S2R+ cells: the following protocol was followed:
100 μl of the following Fluo4+Fura-Red solution was added per well:
Added 200 μl of fly saline.
The ligand solution was added (with or without Ca++ fly saline).
Control cells were S2R+ cells mock-transfected (no DNA was introduced in the co-precipitation buffers).
After removal of the cell medium from the transfected cells of EXAMPLE 8, 100 μl of FLUO-4+ FURA-Red solution was added to well. This solution included 0.5 μl FLUO-4 stock, 0.5 μl FURA-Red stock, 0.5 μl Pluronic stock and 100 μl Stop solution. The cells were incubate in this solution at room temperature for 45 minutes. The saline was removed and 200 μl of fly saline was added. In Ca++ free conditions, the cells were washed with Ca++ free fly saline supplemented with 5 mM EGTA three times, and then 200 μl of Ca++ free, 5 mM EGTA fly saline was added. The ligand solution was then added with or without Ca++ fly saline.
The loaded cells were imaged by confocal microscopy using 488 nm excitation and Long Pass 650 nm and Band Pass 500-525 nm filters.

Question: Which “time to begin avoiding DEET” value (wild-type Canton S flies; Canton S flies without antennae) does the source give for CCN(CC)C(=O)c1cccc(C)c1 [DEET, N,N-diethyl-meta-toluamide] here?
Answer: almost immediately

Question: What about the “avoidance without the third antennal segment” value (wild-type Canton S flies) of the same compound?
Answer: able to avoid

Question: What about the “avoidance of DEET in first fifteen minutes after exposure” value (“avoidance of DEET … after exposure” for short) (wild-type Canton S flies; wild type Canton-S flies) of the same compound?
Answer: clearly avoided DEET

Question: What about the “lowest concentration in agar consistently avoided” value (wild-type Canton S flies; wild-type Canton S flies, with and without the presence of sugar) of the same compound?
Answer: 0.2%

Question: What about the “avoidance of DEET in first 15 minutes” value (painless mutant flies; P-pain-rescue, pain1 transgenic flies (genomic painless rescue construct), females and males) of the same compound?
Answer: some avoidance of DEET

Question: And the “avoidance of DEET … after exposure” value (painless mutant flies; pain1/pain2 females and males)?
Answer: failed to avoid DEET

Question: What about the “avoidance of DEET … after exposure” value (painless mutant flies; pain1 females and males) of the same compound?
Answer: failed to avoid DEET

Question: What about the “time to avoid DEET, females relative to males” value (painless mutant flies; painless females vs painless males) of the same compound?
Answer: twice as long

Question: What about the “avoidance of DEET, females” value (painless mutant flies; painless-/- females) of the same compound?
Answer: barely avoiding at the last 65 min time point

Question: And the “time to begin avoiding DEET” value (painless mutant flies; painless-/- males)?
Answer: about 30 minutes

Question: What about the “avoidance of DEET without third antennal segments” value (painless mutant flies; painless-/- males and females with surgically removed third antennal segments) of the same compound?
Answer: no avoidance of DEET

Question: And the “avoidance of DEET in first fifteen minutes of the trial” value (painless mutant flies; painless-Gal4 females and males)?
Answer: failed to avoid DEET

Question: And the avoidance (Or83b mutants)?
Answer: able to avoid DEET

Question: What about the “exposure time until consistent avoidance of DEET” value (dTRPA1 mutant flies; 0.2% concentration) of the same compound?
Answer: less than 15 minutes

Question: And the “activity level (path lengths/min) in the presence of DEET” value (Drosophila flies; Canton S flies without the third antennal segment)?
Answer: significantly less active

Question: What about the “activity level in the presence of DEET” value (Drosophila flies; Or83b flies compared to Canton S, TrpA1 and painless mutant counterparts) of the same compound?
Answer: much less active

Question: What about the “activity level (path lengths/min) in the presence of DEET” value (Drosophila flies; wild type Canton S flies with intact third-antennal segments) of the same compound?
Answer: increased their activity level

Question: And the “calcium response (FLUO-4 and FURA-RED AM channels)” value (Drosophila painless)?
Answer: strong calcium increases

Question: What about the “calcium response (FLUO-4 and FURA-RED AM channels)” value [1] of the same compound?
Answer: strong calcium increases

Question: C=CCN=C=S [AITC, allyl-isothiocyanate] was tested. Which “avoidance without the third antennal segment” value (wild-type Canton S flies) did it give?
Answer: able to avoid

Question: What about the “preference in AITC avoidance test, males” value (painless mutant flies; painless-/- males, 1:10,000 dilution) of the same compound?
Answer: slight preference for the non-AITC side

Question: What about the “AITC detection / avoidance” value (painless mutant flies; painless-/- mutants, 1:10,000 dilution, compared to wild type Canton S) of the same compound?
Answer: deficient in AITC detection

Question: What about the avoidance (Or83b mutants) of the same compound?
Answer: did not show the same avoidance of AITC

Question: And the “avoidance of AITC over time” value (dTRPA1 mutant flies; 1:10,000 AITC)?
Answer: avoided the toxin for the first 30 minutes, but afterwards showed no preference for either side of the plate
